From patent US9670157B2, “Benzylamine derivatives” (KALVISTA PHARMACEUTICALS LIMITED, priority 2013, dated 2017)

Legend:
[1] = Pharmacokinetics following a single oral dose in rats; format: in vivo; conditions: rat, nominal 10 mg/kg, male Sprague-Dawley rats, plasma
Method: Pharmacokinetic studies of selected examples were performed to assess the pharmacokinetics following a single oral dose in male Sprague-Dawley rats. Typically, either two or three rats were given a single po dose of 5 mL/kg of a nominal 2 mg/mL (10 mg/kg) composition of test compound in either 5% cremophor:5% ethanol:90% phosphate buffered saline or 20% Labrasol:80% water. Following dosing, blood samples were collected over a period of 8 hours. Typical sample times include 5, 15 and 30 minutes then 1, 2, 4, 6 and 8 hours. Following collection, blood samples were centrifuged and the plasma fraction analysed for concentration of test compound by LCMS.

thrombin = thrombin (Homo sapiens (Human), UniProt P00734); assay: Determination of Enzyme Selectivity: thrombin; format: biochemical; conditions: substrate at Km concentration
Method: (§1) Human serine protease enzymes plasmin, thrombin, trypsin, Factor Xa and Factor XIIa were assayed for enzymatic activity using an appropriate fluorogenic substrate. Protease activity was measured by monitoring the accumulation of liberated fluorescence from the substrate over 5 minutes. The linear rate of fluorescence increase per minute was expressed as percentage (%) activity. The Km for the cleavage of each substrate was determined by standard transformation of the Michaelis-Menten equation.

Human plasma kallikrein = Human plasma kallikrein (Homo sapiens (Human), UniProt P03952); assay: Determination of the IC50 for Plasma Kallikrein; format: biochemical; conditions: 37° C., fluorogenic substrate H-DPro-Phe-Arg-AFC; read-out: IC50 (human PKal)
Human plasma kallikrein, sequence (P03952 391-638): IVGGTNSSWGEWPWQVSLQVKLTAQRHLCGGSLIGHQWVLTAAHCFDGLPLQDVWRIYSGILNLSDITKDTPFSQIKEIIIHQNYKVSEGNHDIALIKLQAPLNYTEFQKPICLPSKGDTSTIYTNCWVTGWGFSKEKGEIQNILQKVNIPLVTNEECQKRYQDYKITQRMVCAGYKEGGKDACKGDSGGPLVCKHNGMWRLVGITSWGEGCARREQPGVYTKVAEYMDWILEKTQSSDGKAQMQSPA
Human plasma kallikrein, sequence (P03952 20-390 partner): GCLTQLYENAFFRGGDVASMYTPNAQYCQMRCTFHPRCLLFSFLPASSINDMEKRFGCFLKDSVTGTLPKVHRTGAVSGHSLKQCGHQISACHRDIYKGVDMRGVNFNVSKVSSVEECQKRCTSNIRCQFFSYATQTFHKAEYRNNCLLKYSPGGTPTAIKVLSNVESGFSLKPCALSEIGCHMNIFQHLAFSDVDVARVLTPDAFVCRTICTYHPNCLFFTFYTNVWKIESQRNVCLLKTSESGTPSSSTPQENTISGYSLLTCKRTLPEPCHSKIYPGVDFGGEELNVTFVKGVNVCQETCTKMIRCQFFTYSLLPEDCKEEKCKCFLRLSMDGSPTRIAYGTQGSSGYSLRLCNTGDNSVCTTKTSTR
Method: Human plasma kallikrein (Protogen) was incubated at 37° C. with the fluorogenic substrate H-DPro-Phe-Arg-AFC and various concentrations of the test compound. Residual enzyme activity (initial rate of reaction) was determined by measuring the change in optical absorbance at 410 nm and the IC50 value for the test compound was determined.

Factor XIIa = Factor XIIa (Homo sapiens (Human), UniProt P00748); assay: Determination of Enzyme Selectivity: Factor XIIa; format: biochemical; conditions: substrate at Km concentration
Factor XIIa, sequence (P00748 373-615): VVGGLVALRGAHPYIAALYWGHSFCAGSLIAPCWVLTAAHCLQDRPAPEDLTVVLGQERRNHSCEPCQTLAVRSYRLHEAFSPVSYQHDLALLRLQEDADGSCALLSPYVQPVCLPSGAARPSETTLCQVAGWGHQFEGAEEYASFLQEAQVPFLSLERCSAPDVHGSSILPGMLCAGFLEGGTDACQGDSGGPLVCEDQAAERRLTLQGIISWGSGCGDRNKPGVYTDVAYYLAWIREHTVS
Method: as §1

plasmin = plasmin (Homo sapiens (Human), UniProt P00747); assay: Determination of Enzyme Selectivity: plasmin; format: biochemical; conditions: substrate at Km concentration
plasmin, sequence (P00747 581-810): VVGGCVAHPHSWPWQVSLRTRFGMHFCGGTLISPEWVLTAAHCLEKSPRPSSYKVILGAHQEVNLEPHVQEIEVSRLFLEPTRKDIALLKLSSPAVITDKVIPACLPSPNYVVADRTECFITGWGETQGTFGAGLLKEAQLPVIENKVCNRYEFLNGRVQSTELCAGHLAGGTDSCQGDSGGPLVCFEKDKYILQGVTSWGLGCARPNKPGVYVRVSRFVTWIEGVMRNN
plasmin, sequence (P00747 97-580 partner): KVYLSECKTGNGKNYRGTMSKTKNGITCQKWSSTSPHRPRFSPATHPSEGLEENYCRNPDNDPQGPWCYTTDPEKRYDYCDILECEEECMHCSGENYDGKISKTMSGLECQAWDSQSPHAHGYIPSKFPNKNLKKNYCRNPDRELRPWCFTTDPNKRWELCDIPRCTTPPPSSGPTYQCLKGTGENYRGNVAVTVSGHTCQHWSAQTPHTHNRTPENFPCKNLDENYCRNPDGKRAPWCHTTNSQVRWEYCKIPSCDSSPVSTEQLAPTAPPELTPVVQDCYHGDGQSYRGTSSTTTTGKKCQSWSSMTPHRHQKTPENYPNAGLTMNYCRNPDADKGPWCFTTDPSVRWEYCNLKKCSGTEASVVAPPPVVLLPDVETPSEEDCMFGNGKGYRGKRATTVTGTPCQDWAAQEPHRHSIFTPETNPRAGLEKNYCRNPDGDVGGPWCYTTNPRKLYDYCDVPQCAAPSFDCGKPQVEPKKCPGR
Method: as §1

Human KLK1 = Human KLK1 (Homo sapiens (Human), UniProt P06870); assay: Determination of the IC50 for KLK1; format: biochemical; conditions: 37° C., fluorogenic substrate H-DVal-Leu-Arg-AFC
Human KLK1, sequence (P06870 25-262): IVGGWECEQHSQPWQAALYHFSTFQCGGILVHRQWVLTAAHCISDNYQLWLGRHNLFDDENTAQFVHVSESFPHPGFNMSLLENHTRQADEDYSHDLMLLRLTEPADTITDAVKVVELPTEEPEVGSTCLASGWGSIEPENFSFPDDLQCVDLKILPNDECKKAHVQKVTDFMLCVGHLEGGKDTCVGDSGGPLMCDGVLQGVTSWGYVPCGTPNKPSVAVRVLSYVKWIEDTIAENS
Outline: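 KLK1 inhibition was measured in vitro following standard published methods. Human KLK1 (Callbiochem) was incubated at 37° C. with the fluorogenic substrate H-DVal-Leu-Arg-AFC in the presence of a range of test compound concentrations. Residual enzyme activity, taken as the initial reaction rate, was followed by the change in optical absorbance at 410 nm, and IC50 values were derived.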

trypsin = assay: Determination of Enzyme Selectivity: trypsin; format: biochemical, Human; conditions: substrate at Km concentration
Method: as §1

| Cmax [1] [ng/mL] | Tmax [1] [h] | IC50 (thrombin) [µM] | IC50 (Human plasma kallikrein) [µM] | IC50 (Factor XIIa) [µM] | IC50 (plasmin) [µM] | IC50 (Human KLK1) [µM] | IC50 (trypsin) [µM] | SMILES |
| --- | --- | --- | --- | --- | --- | --- | --- | --- |
| 81 | 4.67 | > 40 | 0.063 | > 10 | > 40 | > 10 | > 40 | Cc1cc(C(=O)NCc2ccc(CN)cc2)c(C)n1Cc1csc(-c2ccccc2)n1 [Example 1, 2,5-Dimethyl-1-(2-phenyl-thiazol-4-ylmethyl)-1H-pyrrole-3-carboxylic acid 4-aminomethyl-benzylamide] |
| 59 | 5 | > 40 | 0.015 | > 10 | 24.8 | > 10 | > 40 | Cc1cc(CN)ccc1CNC(=O)c1cc(C)n(Cc2csc(-c3ccccc3)n2)c1C [Example 2, 2,5-Dimethyl-1-(2-phenyl-thiazol-4-ylmethyl)-1H-pyrrole-3-carboxylic acid 4-aminomethyl-2-methyl-benzylamide] |
|  |  | > 40 | 8.38 | > 10 | > 40 | > 10 | > 40 | NCc1ccc(CNC(=O)c2cn(Cc3ccccc3)nc2-c2ccccc2)cc1 [Example 84, 1-Benzyl-3-phenyl-1H-pyrazole-4-carboxylic acid 4-aminomethyl-benzylamide] |
